ChEMBL document CHEMBL3885861, “Open TG-GATES”

Species on record: Rattus norvegicus
Assay: Open TG-GATES - Regimen: Single
Format: toxicity, organism-based, Sprague-Dawley
Set-up: regimen Single, gender Male, age 6 weeks
Settings: in vivo, po, 20 mg/kg, route gavage, dose level Low; for APTT / Bas / Eos / Fbg / Hb / Ht / Lym / MCH / MCHC / MCV / Mono / Neu / PT / Plat / RBC / Ret / WBC: tissue Blood; for KIDNEY_L / KIDNEY_R / KIDNEY_TOTAL: tissue Kidney; for LIVER: tissue Liver; for A/G / ALP / ALT / AST / BUN / CRE / Ca / Cl / DBIL / GLC / IP / K / LDH / Na / PL / RALB / TBIL / TC / TG / TP / gamma-GTP: tissue Plasma

CC(CN1c2ccccc2Sc2ccccc21)N(C)C (configuration not stated) [PROMETHAZINE]
TERMINAL_BW (3 h): 208 g | APTT (3 h): 23.7 s | Bas (3 h): 0% | Eos (3 h): 0.6% | Fbg (3 h): 325.8 mg/dL | Hb (3 h): 13.5 g/dL | Ht (3 h): 41.2% | Lym (3 h): 81.4% | MCH (3 h): 20.7 pg | MCHC (3 h): 32.7% | MCV (3 h): 63.3 fL | Mono (3 h): 2.2% | Neu (3 h): 15.4% | PT (3 h): 16.4 s | Plat (3 h): 114.7 x10_4/uL | RBC (3 h): 651.2 x10_4/ul | Ret (3 h): 8.2% | WBC (3 h): 78 x10_2/uL | KIDNEY_L (3 h): 0.9 g | KIDNEY_R (3 h): 0.9 g | KIDNEY_TOTAL (3 h): 1.8 g | LIVER (3 h): 9.2 g | A/G (3 h): 1.2 | ALP (3 h): 1475 IU/L | ALT (3 h): 53.2 IU/L | AST (3 h): 73.6 IU/L | BUN (3 h): 10.6 mg/dL | CRE (3 h): 0.2 mg/dL | Ca (3 h): 10.5 mg/dL | Cl (3 h): 105.8 meq/L | DBIL (3 h): 0.018 mg/dL | GLC (3 h): 177.8 mg/dL | IP (3 h): 9.1 mg/dL | K (3 h): 4.3 meq/L | LDH (3 h): 202.2 IU/L | Na (3 h): 142.4 meq/L | PL (3 h): 140.2 mg/dL | RALB (3 h): 2.9 g/dL | TBIL (3 h): 0.02 mg/dL | TC (3 h): 82 mg/dL | TG (3 h): 60.4 mg/dL | TP (3 h): 5.4 g/dL | gamma-GTP (3 h): 1.2 IU/L | TERMINAL_BW (6 h): 211.9 g | APTT (6 h): 22.9 s | Bas (6 h): 0% | Eos (6 h): 0.6% | Fbg (6 h): 315 mg/dL | Hb (6 h): 13.2 g/dL | Ht (6 h): 40% | Lym (6 h): 83.4% | MCH (6 h): 20.5 pg | MCHC (6 h): 33.1% | MCV (6 h): 62.1 fL | Mono (6 h): 2.2% | Neu (6 h): 13.2% | PT (6 h): 16.9 s | Plat (6 h): 118.2 x10_4/uL | RBC (6 h): 644.8 x10_4/ul | Ret (6 h): 7.8% | WBC (6 h): 108.7 x10_2/uL | KIDNEY_L (6 h): 0.9 g | KIDNEY_R (6 h): 1 g | KIDNEY_TOTAL (6 h): 1.9 g | LIVER (6 h): 9 g | A/G (6 h): 1.3 | ALP (6 h): 1313.4 IU/L | ALT (6 h): 41.2 IU/L | AST (6 h): 72.2 IU/L | BUN (6 h): 10.4 mg/dL | CRE (6 h): 0.2 mg/dL | Ca (6 h): 10.9 mg/dL | Cl (6 h): 105.4 meq/L | DBIL (6 h): 0.014 mg/dL | GLC (6 h): 178.8 mg/dL | IP (6 h): 9.7 mg/dL | K (6 h): 4.3 meq/L | LDH (6 h): 161 IU/L | Na (6 h): 141.4 meq/L | PL (6 h): 131.2 mg/dL | RALB (6 h): 3.1 g/dL | TBIL (6 h): 0.03 mg/dL | TC (6 h): 76.2 mg/dL | TG (6 h): 69.8 mg/dL | TP (6 h): 5.5 g/dL | gamma-GTP (6 h): 1.2 IU/L | TERMINAL_BW (9 h): 213 g | APTT (9 h): 22.5 s | Bas (9 h): 0% | Eos (9 h): 0.4% | Fbg (9 h): 311.4 mg/dL | Hb (9 h): 13 g/dL | Ht (9 h): 39.2% | Lym (9 h): 77.8% | MCH (9 h): 20.2 pg | MCHC (9 h): 33% | MCV (9 h): 61.3 fL | Mono (9 h): 2% | Neu (9 h): 18.6% | PT (9 h): 16.8 s | Plat (9 h): 119.8 x10_4/uL | RBC (9 h): 639.8 x10_4/ul | Ret (9 h): 7.2% | WBC (9 h): 108 x10_2/uL | KIDNEY_L (9 h): 1 g | KIDNEY_R (9 h): 1 g | KIDNEY_TOTAL (9 h): 1.9 g | LIVER (9 h): 8.6 g | A/G (9 h): 1.2 | ALP (9 h): 1421.2 IU/L | ALT (9 h): 43.4 IU/L | AST (9 h): 69 IU/L | BUN (9 h): 11.4 mg/dL | CRE (9 h): 0.2 mg/dL | Ca (9 h): 10.9 mg/dL | Cl (9 h): 105 meq/L | DBIL (9 h): 0.008 mg/dL | GLC (9 h): 183.8 mg/dL | IP (9 h): 10.2 mg/dL | K (9 h): 4.3 meq/L | LDH (9 h): 152.8 IU/L | Na (9 h): 140.8 meq/L | PL (9 h): 123.2 mg/dL | RALB (9 h): 2.9 g/dL | TBIL (9 h): 0.018 mg/dL | TC (9 h): 72.2 mg/dL | TG (9 h): 51.4 mg/dL | TP (9 h): 5.4 g/dL | gamma-GTP (9 h): 1.4 IU/L | TERMINAL_BW (24 h): 220.8 g | APTT (24 h): 22.2 s | Bas (24 h): 0% | Eos (24 h): 0.8% | Fbg (24 h): 317.2 mg/dL | Hb (24 h): 13.4 g/dL | Ht (24 h): 39.8% | Lym (24 h): 79.8% | MCH (24 h): 20.8 pg | MCHC (24 h): 33.6% | MCV (24 h): 62 fL | Mono (24 h): 2.4% | Neu (24 h): 16.4% | PT (24 h): 16.6 s | Plat (24 h): 117.2 x10_4/uL | RBC (24 h): 643.4 x10_4/ul | Ret (24 h): 7.2% | WBC (24 h): 125.3 x10_2/uL | KIDNEY_L (24 h): 0.9 g | KIDNEY_R (24 h): 0.9 g | KIDNEY_TOTAL (24 h): 1.9 g | LIVER (24 h): 10.1 g | A/G (24 h): 1.3 | ALP (24 h): 1645.6 IU/L | ALT (24 h): 49.8 IU/L | AST (24 h): 76 IU/L | BUN (24 h): 17.4 mg/dL | CRE (24 h): 0.2 mg/dL | Ca (24 h): 11 mg/dL | Cl (24 h): 106 meq/L | DBIL (24 h): 0 mg/dL | GLC (24 h): 188 mg/dL | IP (24 h): 6.8 mg/dL | K (24 h): 4.1 meq/L | LDH (24 h): 154 IU/L | Na (24 h): 142.6 meq/L | PL (24 h): 146.2 mg/dL | RALB (24 h): 3.1 g/dL | TBIL (24 h): 0.002 mg/dL | TC (24 h): 78.2 mg/dL | TG (24 h): 109.2 mg/dL | TP (24 h): 5.5 g/dL | gamma-GTP (24 h): 1.6 IU/L
